4 compounds from ChEMBL document CHEMBL1649454, “Genetic analysis of colistin resistance in Salmonella enterica serovar Typhimurium” (2009) can be followed below.

The source made the active and inactive calls. The calls are words filed in the database; no cut-off is given here.

In experiment [1] the test system is Salmonella typhimurium. The experiment in a line: Antimicrobial activity against Salmonella enterica serovar Typhimurium LT2 DA10840 harboring pmrA (CGC to CAC, R81H mutant) grown in liquid culture. In kind it is functional.
For experiment [2], the system named is Salmonella typhimurium. Nature of the experiment: Antimicrobial activity against Salmonella enterica serovar Typhimurium LT2 DA10845 harboring pmrB (ATG to ATA, M186I mutant) grown in liquid culture. Type of experiment: functional.
For experiment [3], the system named is Salmonella typhimurium. Nature of the experiment: Antimicrobial activity against Salmonella enterica serovar Typhimurium LT2 DA10826 harboring pmrA (GGG to GAG, G53E mutant) grown in liquid culture. In kind it is functional.
The test system of experiment [4] is Salmonella typhimurium. The experiment in a line: Antimicrobial activity against Salmonella enterica serovar Typhimurium LT2 DA10833 harboring pmrB (GAA to AAA, E161K mutant) grown in liquid culture. In kind it is functional.
For experiment [5], the system named is Salmonella typhimurium. The experiment in a line: Antimicrobial activity against Salmonella enterica serovar Typhimurium LT2 DA6192 grown in liquid culture. Type of experiment: functional.
The subject of experiment [6] is Salmonella typhimurium. The experiment in a line: Antimicrobial activity against Salmonella enterica serovar Typhimurium LT2 DA10839 harboring pmrB (TCC to CCC, S124P mutant) by Etest method. In kind it is functional, organism-based. The note with it: Salmonella enterica subsp. enterica serovar Typhimurium str. LT2.
Experiment [7] concerns Salmonella typhimurium. Nature of the experiment: Antimicrobial activity against Salmonella enterica serovar Typhimurium LT2 DA10831 harboring pmrB (AGC to CGC, S305R mutant) by Etest method. Type of experiment: functional, organism-based. The conditions noted are these: Salmonella enterica subsp. enterica serovar Typhimurium str. LT2.
Experiment [8] deals with Salmonella typhimurium. The experiment in a line: Antimicrobial activity against Salmonella enterica serovar Typhimurium LT2 DA10840 harboring pmrA (CGC to CAC, R81H mutant) by Etest method. The note with it: Salmonella enterica subsp. enterica serovar Typhimurium str. LT2. Type of experiment: functional, organism-based.
In experiment [9] the test system is Salmonella typhimurium. Nature of the experiment: Antimicrobial activity against Salmonella enterica serovar Typhimurium LT2 DA10845 harboring pmrB (ATG to ATA, M186I mutant) by Etest method. Type of experiment: functional, organism-based. The conditions noted are these: Salmonella enterica subsp. enterica serovar Typhimurium str. LT2.
Experiment [10] concerns Salmonella typhimurium. Nature of the experiment: Antimicrobial activity against Salmonella enterica serovar Typhimurium LT2 DA10832 harboring pmrB (ACC to GCC, T92A mutant) by Etest method. Type of experiment: functional, organism-based. The note with it: Salmonella enterica subsp. enterica serovar Typhimurium str. LT2.
Experiment [11] relates to Salmonella typhimurium. Nature of the experiment: Bactericidal activity against Salmonella enterica serovar Typhimurium LT2 DA10845 harboring pmrB M186I mutant at 16 mg/L after 240 mins by time kill study. In kind it is functional, organism-based. The conditions noted are these: Salmonella enterica subsp. enterica serovar Typhimurium str. LT2.
Experiment [12] has as its system Salmonella typhimurium. Nature of the experiment: Antimicrobial activity against Salmonella enterica serovar Typhimurium LT2 DA10844 harboring pmrA (GGG to AGG, G15R mutant) by Etest method. Type of experiment: functional, organism-based. The note with it: Salmonella enterica subsp. enterica serovar Typhimurium str. LT2.
The test system of experiment [13] is Salmonella typhimurium. Nature of the experiment: Antimicrobial activity against Salmonella enterica serovar Typhimurium LT2 DA10875 harboring pmrB (GGG to AGG, G206R mutant) by Etest method. Type of experiment: functional, organism-based. The conditions noted are these: Salmonella enterica subsp. enterica serovar Typhimurium str. LT2.
Experiment [14] has as its system Salmonella typhimurium. Nature of the experiment: Antimicrobial activity against Salmonella enterica serovar Typhimurium LT2 DA10848 harboring pmrB (ACG to CCG, T156P mutant) by Etest method. Type of experiment: functional, organism-based. The conditions noted are these: Salmonella enterica subsp. enterica serovar Typhimurium str. LT2.
In experiment [15] the test system is Salmonella typhimurium. Nature of the experiment: Antimicrobial activity against Salmonella enterica serovar Typhimurium LT2 DA10826 harboring pmrA (GGG to GAG, G53E mutant)by Etest method. Type of experiment: functional, organism-based. The conditions noted are these: Salmonella enterica subsp. enterica serovar Typhimurium str. LT2.
In experiment [16] the test system is Salmonella typhimurium. Nature of the experiment: Antimicrobial activity against Salmonella enterica serovar Typhimurium LT2 DA10853 pmrB AAT to TAT and N130Y mutant by Etest method. In kind it is functional, organism-based. The conditions noted are these: Salmonella enterica subsp. enterica serovar Typhimurium str. LT2.
Experiment [17] deals with Salmonella typhimurium. Nature of the experiment: Antimicrobial activity against Salmonella enterica serovar Typhimurium LT2 DA10857 harboring pmrA (CGC to TGC, R81C mutant) by Etest method. In kind it is functional, organism-based. The note with it: Salmonella enterica subsp. enterica serovar Typhimurium str. LT2.
For experiment [18], the system named is Salmonella typhimurium. Nature of the experiment: Antimicrobial activity against Salmonella enterica serovar Typhimurium LT2 DA10864 harboring pmrB (AGC to AGA, S305R mutant) by Etest method. In kind it is functional, organism-based. The note with it: Salmonella enterica subsp. enterica serovar Typhimurium str. LT2.
Experiment [19] relates to Salmonella typhimurium. Nature of the experiment: Antimicrobial activity against Salmonella enterica serovar Typhimurium LT2 DA10859 harboring pmrB (GTG to GGG, V161G mutant) by Etest method. Type of experiment: functional, organism-based. The conditions noted are these: Salmonella enterica subsp. enterica serovar Typhimurium str. LT2.
Experiment [20] deals with Salmonella typhimurium. Nature of the experiment: Bactericidal activity against Salmonella enterica serovar Typhimurium LT2 DA10840 harboring pmrA R81H mutant at 16 mg/L after 30 mins by time kill study. In kind it is functional, organism-based. The conditions noted are these: Salmonella enterica subsp. enterica serovar Typhimurium str. LT2.
Experiment [21] has as its system Salmonella typhimurium. Nature of the experiment: Antimicrobial activity against Salmonella enterica serovar Typhimurium LT2 DA10833 harboring pmrB (GAA to AAA, E161K mutant) by Etest method. In kind it is functional, organism-based. The conditions noted are these: Salmonella enterica subsp. enterica serovar Typhimurium str. LT2.
In experiment [22] the test system is Salmonella typhimurium. The experiment in a line: Antimicrobial activity against Salmonella enterica serovar Typhimurium LT2 DA10835 harboring (pmrB GTG to CTG, V161L mutant) by Etest method. Type of experiment: functional, organism-based. The note with it: Salmonella enterica subsp. enterica serovar Typhimurium str. LT2.
Experiment [23] has as its system Salmonella typhimurium. The experiment in a line: Antimicrobial activity against Salmonella enterica serovar Typhimurium LT2 DA10856 harboring pmrB (GTG to ATG, V161M mutant) by Etest method. Type of experiment: functional, organism-based. The note with it: Salmonella enterica subsp. enterica serovar Typhimurium str. LT2.
The test system of experiment [24] is Salmonella typhimurium. Nature of the experiment: Antimicrobial activity against Salmonella enterica serovar Typhimurium LT2 DA10874 harboring pmrB ACC to CCC, T147P mutant) by Etest method. Type of experiment: functional, organism-based. The note with it: Salmonella enterica subsp. enterica serovar Typhimurium str. LT2.
Experiment [25] deals with Salmonella typhimurium. The experiment in a line: Bactericidal activity against Salmonella enterica serovar Typhimurium LT2 DA10829 harboring pmrB S29R mutant at 16 mg/L after 30 mins by time kill study. The note with it: Salmonella enterica subsp. enterica serovar Typhimurium str. LT2. Type of experiment: functional, organism-based.
Experiment [26] relates to Salmonella typhimurium. Nature of the experiment: Bactericidal activity against Salmonella enterica serovar Typhimurium LT2 DA10829 harboring pmrB S29R mutant at 16 mg/L after 240 mins by time kill study. Type of experiment: functional, organism-based. The note with it: Salmonella enterica subsp. enterica serovar Typhimurium str. LT2.
Experiment [27] relates to Salmonella typhimurium. The experiment in a line: Antimicrobial activity against Salmonella enterica serovar Typhimurium LT2 DA10862 harboring pmrB (GAG to GCG, E21A mutant) by Etest method. Type of experiment: functional, organism-based. The note with it: Salmonella enterica subsp. enterica serovar Typhimurium str. LT2.
Experiment [28] deals with Salmonella typhimurium. The experiment in a line: Antimicrobial activity against Salmonella enterica serovar Typhimurium LT2 DA10837 harboring pmrB (CCG to CAG, P94Q mutant) by Etest method. In kind it is functional, organism-based. The note with it: Salmonella enterica subsp. enterica serovar Typhimurium str. LT2.
The subject of experiment [29] is Salmonella typhimurium. The experiment in a line: Antimicrobial activity against Salmonella enterica serovar Typhimurium LT2 DA6192 by Etest method. In kind it is functional, organism-based. The note with it: Salmonella enterica subsp. enterica serovar Typhimurium str. LT2.
Experiment [30] deals with Salmonella typhimurium. Nature of the experiment: Bactericidal activity against Salmonella enterica serovar Typhimurium LT2 DA6192 at 1 mg/L after 30 mins by time kill study. Type of experiment: functional, organism-based. The note with it: Salmonella enterica subsp. enterica serovar Typhimurium str. LT2.
For experiment [31], the system named is Salmonella typhimurium. The experiment in a line: Antimicrobial activity against Salmonella enterica serovar Typhimurium LT2 DA10829 harboring pmrB (AGT to AGA, S29R mutant) by Etest method. Type of experiment: functional, organism-based. The note with it: Salmonella enterica subsp. enterica serovar Typhimurium str. LT2.
In experiment [32] the test system is Salmonella typhimurium. The experiment in a line: Bactericidal activity against Salmonella enterica serovar Typhimurium LT2 DA10845 harboring pmrB M186I mutant at 16 mg/L after 30 mins by time kill study. The conditions noted are these: Salmonella enterica subsp. enterica serovar Typhimurium str. LT2. Type of experiment: functional, organism-based.
The test system of experiment [33] is Salmonella typhimurium. The experiment in a line: Antimicrobial activity against Salmonella enterica serovar Typhimurium LT2 DA10850 harboring pmrA (GGG to AGG, G53R mutant) by Etest method. Type of experiment: functional, organism-based. The conditions noted are these: Salmonella enterica subsp. enterica serovar Typhimurium str. LT2.
Experiment [34] concerns Salmonella typhimurium. Nature of the experiment: Antimicrobial activity against Salmonella enterica serovar Typhimurium LT2 DA10863 harboring pmrB (GGG to TGG, G206W mutant) by Etest method. In kind it is functional, organism-based. The note with it: Salmonella enterica subsp. enterica serovar Typhimurium str. LT2.
In experiment [35] the test system is Salmonella typhimurium. The experiment in a line: Bactericidal activity against Salmonella enterica serovar Typhimurium LT2 DA10840 harboring pmrA R81H mutant at 16 mg/L after 240 mins by time kill study. Type of experiment: functional, organism-based. The note with it: Salmonella enterica subsp. enterica serovar Typhimurium str. LT2.
[36] abbreviates: Salmonella enterica subsp. enterica serovar Typhimurium str. LT2.

On to `CC[C@H](C)[C@H](NC(=O)[C@H](CCCCN)NC(=O)[C@H](CCC(=O)O)NC(=O)[C@H](CCCCN)NC(=O)[C@H](CO)NC(=O)[C@H](CCCCN)NC(=O)[C@H](CCCNC(=N)N)NC(=O)[C@H](Cc1ccccc1)NC(=O)[C@H](Cc1ccccc1)NC(=O)[C@H](CC(=O)O)NC(=O)CNC(=O)[C@H](CC(C)C)NC(=O)[C@@H](N)CC(C)C)C(=O)NCC(=O)N[C@@H](CCCCN)C(=O)N[C@@H](CCC(=O)O)C(=O)N[C@@H](Cc1ccccc1)C(=O)N[C@@H](CCCCN)C(=O)N[C@@H](CCCNC(=N)N)C(=O)N[C@H](C(=O)N[C@H](C(=O)N[C@@H](CCC(N)=O)C(=O)N[C@@H](CCCNC(=N)N)C(=O)N[C@H](C(=O)N[C@@H](CCCCN)C(=O)N[C@@H](CC(=O)O)C(=O)N[C@@H](Cc1ccccc1)C(=O)N[C@@H](CC(C)C)C(=O)N[C@@H](CCCNC(=N)N)C(=O)N[C@@H](CC(N)=O)C(=O)N[C@@H](CC(C)C)C(=O)N[C@H](C(=O)N1CCC[C@H]1C(=O)N[C@@H](CCCNC(=N)N)C(=O)N[C@H](C(=O)N[C@@H](CCC(=O)O)C(=O)N[C@@H](CO)C(=O)O)[C@@H](C)O)C(C)C)[C@@H](C)CC)C(C)C)[C@@H](C)CC` [CATHELICIDIN], for which the MIC (usually the least concentration at which growth counts as inhibited) turned out to be 25 µM in [1]; 25 µM in experiment [2]; 25 µM in experiment [3]; 25 µM in experiment [4]; 15 µM in experiment [5].

BLEOMYCIN: the minimal inhibitory concentration (MIC) in experiment [1] (setting [36]), in [2] (setting [36]), in experiment [3] (setting [36]), in experiment [4] (setting [36]) and in experiment [5] (setting [36]) was 0.19 µg/mL each time.

For the compound COLISTIN, the MIC in experiment [6] worked out at 2.3 µg/mL; in experiment [7], 2.7 µg/mL; in experiment [8] it was 3 µg/mL; in experiment [9] it was 2.8 µg/mL; in [10] it was 0.25 µg/mL; in experiment [12], 2.7 µg/mL. For the same compound, the MIC in experiment [13] was determined as 2 µg/mL; in [14], 4.4 µg/mL; in experiment [15] it was 3 µg/mL; in experiment [16], 2 µg/mL; in [17], 4 µg/mL; in [18], 2.7 µg/mL. The MIC in [19] came to 3 µg/mL; in experiment [21], 3 µg/mL; in experiment [22], 2 µg/mL; in experiment [23] it was 4 µg/mL; in experiment [24] it was 2.5 µg/mL; in experiment [27] it was 4 µg/mL. The MIC in experiment [28] amounted to 2.5 µg/mL; in [29], 0.125 µg/mL; in experiment [31] it was 0.5 µg/mL; in experiment [33] it was 3 µg/mL; in experiment [34], 2 µg/mL. In addition, the result in experiment [11], in experiment [20], in [25], in [26], in experiment [30] and in experiment [32] was Active. Moreover, in experiment [35], the result was Active.

“H-RRRPRPPYLPRPRPPPFFPPRLPPRIPPGFPPRFPPRFP-NH2”: the MIC in [1], in experiment [2], in [3], in experiment [4] and in experiment [5] was 3 µM in each case.
